From patent publication US5599953A, “C-glycoside analogues of N-(4-hydroxyphenyl)retinamide-O-glucuronide” (The Ohio State Research Foundation, priority 1995, dated 1997) come the findings set out here.

Molecules are shown by their SMILES. Entries after “also recorded” stand apart in the source; their conditions may differ. Read-outs that look alike come from different tables or passages of the source.

In data set [1] the target is T1, β-glucuronidase (Homo sapiens, UniProt P08236).
T1 sequence (P08236 23-651): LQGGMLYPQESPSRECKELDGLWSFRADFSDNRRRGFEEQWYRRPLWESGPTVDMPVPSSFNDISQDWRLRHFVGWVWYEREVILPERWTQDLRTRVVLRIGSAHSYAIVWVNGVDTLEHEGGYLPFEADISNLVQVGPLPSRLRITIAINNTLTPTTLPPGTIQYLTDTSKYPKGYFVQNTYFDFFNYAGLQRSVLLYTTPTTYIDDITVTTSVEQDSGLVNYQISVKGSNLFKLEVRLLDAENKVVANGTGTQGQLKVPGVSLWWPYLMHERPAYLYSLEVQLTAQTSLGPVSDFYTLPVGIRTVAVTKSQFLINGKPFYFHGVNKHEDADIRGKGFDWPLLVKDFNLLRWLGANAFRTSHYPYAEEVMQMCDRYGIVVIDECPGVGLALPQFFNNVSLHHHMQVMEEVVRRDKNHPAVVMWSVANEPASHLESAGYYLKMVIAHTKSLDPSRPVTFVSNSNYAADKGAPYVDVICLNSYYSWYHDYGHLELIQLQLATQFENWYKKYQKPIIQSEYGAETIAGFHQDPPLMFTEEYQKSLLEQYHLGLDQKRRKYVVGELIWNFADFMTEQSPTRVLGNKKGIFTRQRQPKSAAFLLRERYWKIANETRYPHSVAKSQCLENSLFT
Put plainly: Stability toward β-glucuronidase mediated hydrolysis. The format is in vitro ADME. The settings on record: within twenty minutes. As to the method:
Similarly 1-(D-glucopyranosyluronosyl) retinamide and RAG were evaluated for their stability toward β-glucuronidase medicated hydrolysis under the same conditions as described above.

A short description of data set [2]: Acid stability, 0.1N HCl at 37° C. for two hours. Type of data set: physicochemical. The protocol: Similarly, 1-(D-glucopyranosyluronosyl) retinamide and RAG were treated with 0.1N HCl at 37° C. for two hours.
The subject of data set [3] is DMBA-Induced Rat Mammary Tumors. The data set can be described thus: Effect on progression of DMBA-induced rat mammary tumors. The settings on record: 1 mmol/Kg in diet. The format is in vivo. The source says:
The control rats received DMBA intubation only and AIN-76A rat chow.

Data set [4] deals with T2, human retinoic acid receptor γ (Homo sapiens, UniProt P13631).
T2 construct: made in house
T2 sequence (P13631 1-454): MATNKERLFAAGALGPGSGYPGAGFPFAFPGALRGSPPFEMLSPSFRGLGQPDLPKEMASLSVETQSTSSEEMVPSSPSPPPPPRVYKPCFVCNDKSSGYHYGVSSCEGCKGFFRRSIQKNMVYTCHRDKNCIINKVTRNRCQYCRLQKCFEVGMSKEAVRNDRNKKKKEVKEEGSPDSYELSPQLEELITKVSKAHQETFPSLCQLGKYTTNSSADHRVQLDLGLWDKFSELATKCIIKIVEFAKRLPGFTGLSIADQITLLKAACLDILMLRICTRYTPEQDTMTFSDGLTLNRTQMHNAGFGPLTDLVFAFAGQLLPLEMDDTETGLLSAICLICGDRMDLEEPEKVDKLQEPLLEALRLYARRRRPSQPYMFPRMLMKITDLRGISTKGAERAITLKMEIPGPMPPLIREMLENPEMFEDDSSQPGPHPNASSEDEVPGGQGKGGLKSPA
Put plainly: Competition binding / retinoic acid binding, human retinoic acid receptor γ/BCV (FIG. 1). The settings on record: 1.3 nM [3H]-retinoic acid.

Data set [5] deals with T1, β-glucuronidase. The data set can be described thus: Inhibition of β-glucuronidase mediated hydrolysis of 4-HPR-O-glucuronide. Type of data set: biochemical. The settings on record: for IC50: 10% methanol as co-solvent, 4-HPR-O-glucuronide below 184.5 μM. The text has this:
Chem. Soc., (1954), 76, 4872-4877.

Data set [6] deals with retinoic acid receptors α, β and γ. The data set can be described thus: Competition with retinoic acid for retinoic acid receptors (RAR α, β, γ), overall. Type of data set: binding. The settings on record: 1 μM drug.
For the next data set, the target named is T3, mRARα (Mus musculus, UniProt P11416).
T3 construct: made in house; host or cells: Spodoptera frugiperda insect cells, baculovirus (whole cell extract)
T3 sequence (P11416 1-462): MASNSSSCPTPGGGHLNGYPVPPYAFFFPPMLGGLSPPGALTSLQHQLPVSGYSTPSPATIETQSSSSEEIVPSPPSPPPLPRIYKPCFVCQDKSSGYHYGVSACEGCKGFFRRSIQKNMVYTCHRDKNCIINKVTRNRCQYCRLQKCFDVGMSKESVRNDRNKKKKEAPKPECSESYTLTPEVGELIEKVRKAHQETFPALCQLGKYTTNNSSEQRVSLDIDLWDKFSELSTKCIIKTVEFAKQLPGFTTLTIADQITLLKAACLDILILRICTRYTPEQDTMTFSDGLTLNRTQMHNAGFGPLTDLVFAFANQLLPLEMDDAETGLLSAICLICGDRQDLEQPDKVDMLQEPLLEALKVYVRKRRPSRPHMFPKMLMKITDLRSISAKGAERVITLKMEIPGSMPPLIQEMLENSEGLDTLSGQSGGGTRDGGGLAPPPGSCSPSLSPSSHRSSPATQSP
Put plainly: Drug competition with (3H)retinoic acid binding, mRARα. The following applies: read-out: percent reduction of binding of the (3H)retinoic acid, mRARα; 1 μM drug; 5 nM [3H]RA.

A further data set addresses T4, mRARγ (Mus musculus, UniProt P18911).
T4 construct: made in house; host or cells: Spodoptera frugiperda insect cells, baculovirus (whole cell extract)
T4 sequence (P18911 1-458): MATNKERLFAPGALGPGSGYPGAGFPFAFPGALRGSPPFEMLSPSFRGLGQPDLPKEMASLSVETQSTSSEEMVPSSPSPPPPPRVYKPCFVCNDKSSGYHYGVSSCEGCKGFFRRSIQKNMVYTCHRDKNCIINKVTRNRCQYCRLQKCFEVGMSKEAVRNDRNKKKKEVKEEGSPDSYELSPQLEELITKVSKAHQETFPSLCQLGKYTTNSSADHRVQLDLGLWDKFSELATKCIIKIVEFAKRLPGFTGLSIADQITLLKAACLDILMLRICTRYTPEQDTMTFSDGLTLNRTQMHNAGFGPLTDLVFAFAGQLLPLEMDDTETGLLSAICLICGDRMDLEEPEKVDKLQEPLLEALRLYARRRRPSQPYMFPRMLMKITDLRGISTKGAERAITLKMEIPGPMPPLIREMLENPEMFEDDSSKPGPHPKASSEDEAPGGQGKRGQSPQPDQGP
The data set can be described thus: Drug competition with (3H)retinoic acid binding, mRARγ. The settings on record: read-out: percent reduction of binding of the (3H)retinoic acid, mRARγ; 1 μM drug; 5 nM [3H]RA.

The nature of data set [7]: Acid stability, 0.1N methanolic HCl at 37° C. for 2 hours. Type of data set: physicochemical. The protocol: To determine the stability of the C-glucopyranosiduronate linkage towards acidic conditions, samples of 4-HPR-O-glucuronide, 4-(retinamido)phenyl-C-glucuronide and 4-(retinamido)benzyl-C-glucuronide were treated with 0.1N methanolic HCl at 37° C. for 2 hours.
Another data set relates to MCF-7 cells. Put plainly: Growth inhibition of MCF-7 human mammary tumor cells. The format is cell-based. The settings on record: for IC50: Homo sapiens, MCF7, 168 h, 7 days, read-out: ED50 for growth inhibition of MCF-7 cells; for growth inhibition of MCF-7 cells, in words: comparison of drugs. As to the method:
The antiproliferative activity of the drugs in MCF-7 human mammary tumor cell culture models were determined.
The MCF-7 cells were obtained originally from the Michigan Cancer Foundation. The cells were routinely grown as monolayers in T-25 plastic tissue culture flasks from Falcon, in Oxnard, Calif. containing 5.0 mL of B-10 medium consisting of Minimum Essential Medium (MEM, Earle's Base) supplemented with 1.0 mM MEM non-essential amino acid, 2.0 mM 1-glutamine,10% fetal bovine serum (FBS), and antibiotics. Culture conditions included a humidified atmosphere of 5% CO2 at 37° C. One-half of the medium was replenished twice a week. Cells were harvested by trypsinization upon confluency. All variables were evaluated in triplicate.
For the growth inhibition assay the MCF-7 cells were plated in 24-well plates at a density of 1.5×10^4 cells/cm^2. […] Control cultures were treated with an equivalent volume of absolute ethanol. On day 7 the cells were harvested by trypsinization and viability was assessed by trypan blue exclusion according to Ueda, H. et al. Cancer 1980, 46, 2203-2209. Total cell counts were obtained using a hemocytometer as well as a the Coulter Counter.

A further data set deals with T5, mRARβ (Mus musculus, UniProt P22605).
T5 construct: made in house; host or cells: Spodoptera frugiperda insect cells, baculovirus (whole cell extract)
T5 sequence (P22605 1-448 isoform P22605-3): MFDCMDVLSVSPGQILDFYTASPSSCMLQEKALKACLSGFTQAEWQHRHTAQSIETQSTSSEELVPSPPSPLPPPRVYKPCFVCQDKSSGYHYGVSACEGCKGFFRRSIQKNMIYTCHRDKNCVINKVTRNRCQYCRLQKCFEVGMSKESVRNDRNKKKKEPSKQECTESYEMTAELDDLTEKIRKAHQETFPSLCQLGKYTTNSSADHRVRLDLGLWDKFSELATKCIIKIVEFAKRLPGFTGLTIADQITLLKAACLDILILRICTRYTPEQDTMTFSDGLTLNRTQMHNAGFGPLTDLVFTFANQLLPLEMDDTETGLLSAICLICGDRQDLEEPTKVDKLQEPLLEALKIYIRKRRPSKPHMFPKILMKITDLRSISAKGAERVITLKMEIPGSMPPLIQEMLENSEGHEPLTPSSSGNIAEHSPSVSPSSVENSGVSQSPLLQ
The data set can be described thus: Drug competition with (3H)retinoic acid binding, mRARβ. The settings on record: read-out: percent reduction of binding of the (3H)retinoic acid, mRARβ; 1 μM drug; 5 nM [3H]RA.

For `CC1=C(/C=C/C(C)=C/C=C/C(C)=C/C(=O)NC2O[C@H](C(=O)O)[C@@H](O)[C@H](O)[C@H]2O)C(C)(C)CCC1` (stereo partly drawn) [1-(D-glucopyranosyluronosyl) retinamide], on β-glucuronidase [1], the “hydrolysis by β-glucuronidase within twenty minutes” value was “remained intact”. Also, in data set [2], the acid stability result was “remained intact”. The “effect on DMBA-induced mammary tumor development, in words” value in data set [3] is “significantly prolonged the latency period of mammary cancer; also recorded: tumor induction was markedly delayed and reduced; also recorded: caused the largest reduction in multiple mammary tumors; also recorded: greater mammary tumor chemopreventive effect than does retinoic acid; also recorded: inhibit DMBA induced mammary tumor development”. The molecule also had a tumor latency in data set [3] (15 mg DMBA oral) of 64 days. In addition, in data set [3] (110 days post intubation), the tumor incidents was determined as 50% and the tumor number/rat is recorded as 0.83 tumors per rat. Also, the inhibition constant Ki in data set [4] stood at 0.28 µM.
Consider `CC1=C(/C=C/C(C)=C/C=C/C(C)=C/C(=O)Nc2ccc(C[C@@H]3O[C@H](C(=O)O)[C@@H](O)[C@H](O)[C@H]3O)cc2)C(C)(C)CCC1` [4-(retinamido)benzyl-C-glucuronide], for which the “inhibition of β-glucuronidase mediated hydrolysis, in words” value on β-glucuronidase [5] is “slightly more effective than the 4-(retinamido)phenyl-C-glucuronide”. Also, the IC50 stood at 236 µM against β-glucuronidase [5] and 6.5 µM in the data set with MCF-7 cells (Assay 1). The “competition with retinoic acid for the receptors, in words” value in data set [6] is given as “significantly compete with retinoic acid for the receptors”. Further, the inhibition at 1 µM at mRARα was 67%; at mRARγ, 78%; on mRARβ, 82%. Also, the “acid hydrolysis (stability)” value in [7] is listed as “remained essentially intact”. Further, the “growth inhibition of MCF-7 cells, in words” value in the data set with MCF-7 cells is on record as “exhibit the best growth inhibition of the cells”.
For the molecule `CC1=C(/C=C/C(C)=C/C=C/C(C)=C/C(=O)Nc2ccc([C@@H]3O[C@H](C(=O)O)[C@@H](O)[C@H](O)[C@H]3O)cc2)C(C)(C)CCC1` [4-(retinamido)phenyl-C-glucuronide], the “inhibition of β-glucuronidase mediated hydrolysis, in words” value at β-glucuronidase [5] is reported as “act as inhibitors of β-glucuronidase mediated hydrolysis”. The IC50 worked out at 267 µM at β-glucuronidase [5] and 50 µM with MCF-7 cells (Assay 3). In addition, the “competition with retinoic acid for the receptors, in words” value in [6] is recorded as “significantly compete with retinoic acid for the receptors”. Besides, the figures for the inhibition at 1 µM at mRARα, on mRARγ and on mRARβ were 48%, 40% and 47%, respectively. Moreover, the “acid hydrolysis (stability)” value in data set [7] was “remained essentially intact”. In addition, the “growth inhibition of MCF-7 cells, in words” value with MCF-7 cells was “potency consistent with its glucoside analogue”.
Regarding `CC1=C(/C=C/C(C)=C/C=C/C(C)=C/C(=O)O[C@@H]2O[C@H](C(=O)O)[C@@H](O)[C@H](O)[C@H]2O)C(C)(C)CCC1` [RAG, retinoyl β-glucuronide, reference compound], on β-glucuronidase [1], the “hydrolysis by β-glucuronidase within twenty minutes” value was “completely hydrolyzed”. In data set [2] (HPLC), the degraded at 2 h is ~50%.
